According to patent publication US7834048B2, “Azabicycloheptyl compounds suitable for treating disorders that respond to modulation of the dopamine D3 receptor” (Abbott GmbH & Co. KG, priority 2004, dated 2010):
pKi: −log10 of the molar value.

Tests used:
[1] = target: T1, human dopamine D3 receptors (Homo sapiens, UniProt P35462); assay: Dopamine D3 receptor binding, [125I]-iodosulpride displacement, HEK-293 membranes; details: for pKi: receptor binding constant, membranes of HEK-293 cells, 0.1 nM [125I]-iodosulpride, 25° C., 60 minutes; for Ki(D2)*/Ki(D3)*: selectivity, ratio of receptor binding constants D2L vs D3
T1 construct: expressed in transfected cells
Procedure: (§1) The substance to be tested was either dissolved in methanol/Chremophor® (BASF-AG) or in dimethyl sulfoxide and then diluted with water to the desired concentration.
(§2) Each assay mixture was run in triplicate.
The incubation buffer contained 50 mM tris, 120 mM NaCl, 5 mM KCl, 2 mM CaCl2, 2 mM MgCl2 and 0.1% bovine serum albumin, 10 μM […] and 0.1% ascorbic acid (prepared fresh daily). The buffer was adjusted to pH 7.4 with HCl.
(§3) After having been incubated at 25° C. for 60 minutes, the assay mixtures were filtered through a Whatman GF/B glass fiber filter under vacuum using a cell collecting device. The filters were transferred to scintillation viols using a filter transfer system. After 4 ml of Ultima Gold® (Packard) have been added, the samples were shaken for one hour and the radioactivity was then counted in a Beta-Counter (Packard, Tricarb 2000 or 2200CA). The cpm values were converted into dpm using a standard quench series and the program belonging to the instrument.
(§4) The inhibition curves were analyzed by means of iterative nonlinear regression analysis using the Statistical Analysis System (SAS) which is similar to the “LIGAND” program described by Munson and Rodbard.
(§5) The results of the receptor binding studies are expressed as receptor binding constants Ki(D2) and Ki(D3), respectively, as herein before described, and given in table 1.

[2] = target: T2, human dopamine D2L receptors (long isoform) (Homo sapiens, UniProt P14416); assay: Dopamine D2L receptor binding, [125I]iodospiperone displacement, HEK-293 membranes; details: receptor binding constant; membranes of HEK-293 cells, 0.01 nM [125I]iodospiperone, 25° C., 60 minutes; read-out: Ki(D2)*
T2 construct: expressed in transfected cells
Procedure: as §1, §2
The incubation buffer contained 50 mM tris, 120 mM NaCl, 5 mM KCl, 2 mM CaCl2, 2 mM MgCl2 and 0.1% bovine serum albumin. The buffer was adjusted to pH 7.4 with HCl.
as §3, §4, §5

T2 sequence (P14416 whole entry, canonical isoform): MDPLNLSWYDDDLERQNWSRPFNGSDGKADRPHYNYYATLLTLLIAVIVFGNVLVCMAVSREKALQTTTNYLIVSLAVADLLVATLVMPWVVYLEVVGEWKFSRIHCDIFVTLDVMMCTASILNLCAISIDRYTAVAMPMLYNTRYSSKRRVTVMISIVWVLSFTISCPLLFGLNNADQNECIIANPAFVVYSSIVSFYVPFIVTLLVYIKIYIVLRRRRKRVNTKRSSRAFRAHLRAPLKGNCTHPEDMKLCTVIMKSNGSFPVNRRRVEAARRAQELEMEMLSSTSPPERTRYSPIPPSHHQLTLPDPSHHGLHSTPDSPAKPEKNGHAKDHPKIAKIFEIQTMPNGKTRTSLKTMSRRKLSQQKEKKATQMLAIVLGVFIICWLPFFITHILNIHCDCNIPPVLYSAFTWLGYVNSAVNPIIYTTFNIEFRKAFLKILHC
T1 sequence (P35462 whole entry): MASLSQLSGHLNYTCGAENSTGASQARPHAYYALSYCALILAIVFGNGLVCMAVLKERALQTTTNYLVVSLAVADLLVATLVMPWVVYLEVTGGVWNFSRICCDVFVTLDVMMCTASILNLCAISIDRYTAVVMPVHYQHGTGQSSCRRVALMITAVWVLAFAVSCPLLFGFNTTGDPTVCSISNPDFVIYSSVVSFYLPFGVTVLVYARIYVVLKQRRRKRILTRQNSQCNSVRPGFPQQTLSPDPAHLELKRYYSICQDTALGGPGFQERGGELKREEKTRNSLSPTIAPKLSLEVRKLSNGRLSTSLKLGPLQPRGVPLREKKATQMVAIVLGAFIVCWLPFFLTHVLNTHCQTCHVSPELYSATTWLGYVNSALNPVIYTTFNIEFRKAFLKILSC

SMILES | pKi [1] | Ki(D2)*/Ki(D3)* [1] | pKi [2]
CCCN1C[C@@H]2C[C@@H](c3ccc(NS(=O)(=O)c4ccc(N5CCC[C@@H]5COC)cc4)cc3)[C@@H]2C1 [Example 9, 4-((R)-2-Methoxymethyl-pyrrolidin-1-yl)-N-[4-((1R,5S,6R)-3-propyl-3-azabicyclo[3.2.0]hept-6-yl)-phenyl]-benzenesulfonamide] | 8.39 | 13 | 7.26
CCCN1C[C@@H]2C[C@@H](c3ccc(NS(=O)(=O)c4ccc(C(F)(F)F)cc4)cc3)[C@@H]2C1 [Example 5, N-[4-((1R,5S,6R)-3-Propyl-3-aza-bicyclo[3.2.0]hept-6-yl)-phenyl]-4-trifluoromethyl-benzenesulfonamide] | 8.50 | 23 | 7.14
CCCN1C[C@@H]2C[C@@H](c3ccc(NS(=O)(=O)c4ccc(OC(F)(F)F)cc4)cc3)[C@@H]2C1 [Example 4, N-[4-((1R,5S,6R)-3-Propyl-3-aza-bicyclo[3.2.0]hept-6-yl)-phenyl]-4-trifluoromethoxy-benzenesulfonamide] | 8.27 | 12 | 7.18
CCCN1C[C@@H]2C[C@@H](c3ccc(NS(=O)(=O)c4ccc(-c5ccco5)cc4)cc3)[C@@H]2C1 [Example 12, N-[4-((1R,5S,6R)-3-Propyl-3-aza-bicyclo[3.2.0]hept-6-yl)-phenyl]-4-furan-2-yl-benzenesulfonamide] | 8.35 | 8 | 7.42
C=CCN1C[C@@H]2C[C@@H](c3ccc(NS(=O)(=O)c4ccc(OC(F)(F)F)cc4)cc3)[C@@H]2C1 [Example 6, N-[4-((1R,5S,6R)-3-Allyl-3-aza-bicyclo[3.2.0]hept-6-yl)-phenyl]-4-trifluoromethoxy-benzenesulfonamide] | 8.38 | 11 | 7.33
CCCN1C[C@H]2C[C@H](c3ccc(NS(=O)(=O)c4ccc(C(C)C)cc4)cc3)[C@H]2C1 [Example 14, 4-Isopropyl-N-[4-((1S,5R,6S)-3-propyl-3-aza-bicyclo[3.2.0]hept-6-yl)-phenyl]-benzenesulfonamide] |  | 8 | 
CCCN1C[C@H]2C[C@@H](c3ccc(NS(=O)(=O)c4ccc(C(C)C)cc4)cc3)[C@H]2C1 (relative stereo) [Example 16, endo-4-Isopropyl-N-[4-(3-propyl-3-aza-bicyclo[3.2.0]hept-6-yl)-phenyl]-benzenesulfonamide] | 8.28 | 39 | 6.68
CCCN1C[C@H]2C[C@H](c3ccc(NS(=O)(=O)c4ccc(C(C)C)cc4)cc3)[C@H]2C1 (relative stereo) [Example 3, 4-Isopropyl-N-[4-(exo-3-propyl-3-aza-bicyclo[3.2.0]hept-6-yl)-phenyl]-benzenesulfonamide] |  | 45 | 
CCCN1C[C@@H]2C[C@@H](c3ccc(NS(=O)(=O)c4ccc(N5CCC5)cc4)cc3)[C@@H]2C1 [Example 11, 4-Azetidin-1-yl-N-[4-((1R,5S,6R)-3-propyl-3-aza-bicyclo[3.2.0]hept-6-yl)-phenyl]-benzenesulfonamide] | 8.66 | 26 | 7.25

Continued by rising pKi [1], values first:

pKi [1] | Ki(D2)*/Ki(D3)* [1] | pKi [2] | SMILES
8.70 | 16 | 7.49 | CCCN1C[C@@H]2C[C@@H](c3ccc(NS(=O)(=O)c4ccc(N5CCCC5)cc4)cc3)[C@@H]2C1 [Example 10, N-[4-((1R,5S,6R)-3-Propyl-3-aza-bicyclo[3.2.0]hept-6-yl)-phenyl]-4-pyrrolidin-1-yl-benzenesulfonamide]
8.74 | 17 | 7.52 | CCCN1C[C@@H]2C[C@@H](c3ccc(NS(=O)(=O)c4ccc(SC(F)(F)F)cc4)cc3)[C@@H]2C1 [Example 8, N-[4-((1R,5S,6R)-3-Propyl-3-aza-bicyclo[3.2.0]hept-6-yl)-phenyl]-4-trifluoromethylsulfanyl-benzenesulfonamide]
8.88 | 10 | 7.88 | CCCN1C[C@@H]2C[C@@H](c3ccc(NS(=O)(=O)c4ccc(-c5cccs5)cc4)cc3)[C@@H]2C1 [Example 13, N-[4-((1R,5S,6R)-3-Propyl-3-aza-bicyclo[3.2.0]hept-6-yl)-phenyl]-4-thiophen-2-yl-benzenesulfonamide]
8.88 | 24 | 7.50 | CCCN1C[C@@H]2C[C@@H](c3ccc(NS(=O)(=O)c4ccc(Br)cc4)cc3)[C@@H]2C1 [Example 7, 4-Bromo-N-[4-((1R,5S,6R)-3-propyl-3-aza-bicyclo[3.2.0]hept-6-yl)-phenyl]-benzenesulfonamide]
9.33 | 28 | 7.89 | CCCN1C[C@@H]2C[C@@H](c3ccc(NS(=O)(=O)c4ccc(C(C)C)cc4)cc3)[C@@H]2C1 [Example 1, 4-Isopropyl-N-[4-((1R,5S,6R)-3-propyl-3-aza-bicyclo[3.2.0]hept-6-yl)-phenyl]-benzenesulfonamide]
